From US8603806B2, “Materials and methods for cell-based assays” (The Ohio State Universtiy Research Foundation, priority 2005, dated 2013)
Converted amounts (≈) assume the structure as drawn. “Also recorded” adds a separate entry of the source. Where two headings read alike, the source gives them in different places.

Key:
ES cells [1] = assay: 3-D cytotoxicity (proliferation) assay, ES-GFP cells in PET scaffolds, low density; type: cell-based; settings: for IC50: read-out: 3-D cultures Ig50; for Ig50 in 2-D as times of Ig50 in 3-D: ratio 2-D/3-D
Protocol: For the 3-D cytotoxicity assay, 25000 cells in 25 μl medium were seeded into each PET scaffold. After 6 h incubation to allow cell attachment, 180 μl medium were added to each well and incubated for another 18 h before transferring the seeded matrix to the center of the microbioreactor chamber containing 3 ml of the ES medium on the modified 96-well plate. The plates were then stacked onto a rotational shaker and put into a 37° C. CO2 incubator. The culture fluorescence was measured twice per day with a Cytofluor Series 4000 plate reader. Fluorescence signals from live cells were calculated as the values from the central well of the bioreactor minus the background from the surrounding medium and scaffold.
(§1) With the exponential-phase specific growth rate data, the cytotoxicity of various chemicals can be better evaluated by their Ig50 values defined as the concentration of the chemical causing 50% reduction in the exponential-phase specific cell growth rate.

ES cells [2] = assay: 2-D cytotoxicity assay, ES-GFP cells in 96-well plates; type: cell-based; settings: concentration causing 50% reduction in exponential-phase specific growth rate, drug added one day after inoculation; for IC50: read-out: 2-D cultures Ig50
Protocol: The 2-D cytotoxicity assay was performed in 96-well plates by inoculating 5000 cells into each well containing 150 μl of ES medium. The drug was added one day after inoculation. Fluorescent signals were measured twice per day in the culture plates. The fluorescence given by live cells was calculated as the signals obtained after replacing culture medium with the same volume of PBS minus the blanks.
as §1

ES cells [3] = assay: 3-D high-density ES tissue constructs cytotoxicity; type: cell-based; settings: for Extent of cell kill: 3-D high-density, at maximum dose; for Rf (resistance factor): ratio between EC50 and Ig50; for EC50: 3-D high-density cell cultures, 50% of maximum fluorescence reduction, exposure four or six days after seeding
Excerpt: The effects of various drugs on ES cells grown in 3-D after reaching a high cell density (exposure four or six days after seeding the matrices) were studied and the results are shown in FIG. 14. EC50 (the concentration required for obtaining 50% of a maximum effect) is used to evaluate a drug's cytotoxicity effect on a high-density 3-D cell or tissue construct. Here, if the elimination of cells is considered as the maximum effect of a chemical, an EC50 is not always reached. […] For this case, the maximum effects were defined as the fluorescence reduction caused by the saturation concentration (DM and DPH) or a very high dose compared to doses used in 2-D assays (Penicillin G and 5-FU). In addition, it was also noticed that maximal effects changed along with time, so the time point with the largest value of the maximal effects was used for cytotoxicity definition. Rf (resistance factor) is defined as the ratio between EC50 and Ig50.

HT-29-GFP [4] = assay: HT-29-GFP proliferation assay, 2-D with cell counting; type: cell-based; settings: Homo sapiens, read-out: 2-D with cell counting (Ig50)
Excerpt: (§2) Colon cancer is the third most frequently occurring cancer in the US and causes large numbers of deaths, second only to lung cancer. Treatment of progressed colon cancer involves surgical extraction combining chemotherapy and immunotherapy. The survival rate of colon cancer patients is only 55% due to the low effectiveness of these therapies. […] Butyric acid is a biological response modifier (BRM) and it acts synergistically with 5-FU against colorectal cancers by decreasing thymidine kinase mRNA. As a BRM, it can also increase cell specific productivity at the expense of inhibiting cell growth. […] In this case, the cytotoxicity of a chemical in 3-D cultures was defined as a concentration range of the chemical.

HT-29-GFP [5] = system: HT-29-GFP
Excerpt: as §2

HT-29-GFP [6] = settings: for times more resistance in tumor-like structure: compared with the results from 3-D proliferation assays (3-D low density cells); for effectiveness on high density colon cancer cells / time after drug adding at which fluorescence changed: tumor-like constructs
Excerpt: as §2
Gemcitabine is an S-phase specific drug.

HT-29 = assay: Perfusion culture of HT-29 in microfluidic bioreactor array; type: cell-based, human; settings: 2 μg/ml fed continuously from beginning of perfusion; vs control without drug
Protocol: A human colon cancer cell line HT-29 (ATCC: HTB-38™) was maintained in Dulbecco's Modified Eagle's Medium (DMEM, Gibco) supplemented with 10% fetal bovine serum (FBS, Gibco) in a cell culture incubator at 37° C. with 5% CO2. […] Then cells were diluted and seeded in a 96 well plate at around 5 cells per well. One green fluorescent colony was isolated and expanded in the absence of selective pressure geneticin (G-418, Gibco). The stability of the transfected cell line was verified by FACSCalibur (B-D) (>97%) compared to the negative control.
Before cell culture, the PET matrices were cut to small square patches (2.5 mm×3 mm) and then soaked in water and sterilized in an autoclave at 121° C. for 15 min. […] Then each seeded scaffold was transferred gently to a new well on the same 384-well plate, which was followed by fluorescence intensity measurement in the microplate reader at 485 nm excitation and 535 nm emission. The scaffolds with similar fluorescence intensity were selected and transferred to the wells in the middle two rows of the microbioreactor array. […]
Four 10 mL, syringes were autoclaved and filled with the maintenance media, which were then seated on a syringe pump (PHD 2000, Harvard Apparatus). […] Cell proliferation was analyzed twice a day with the specific plate definition scheme in the microplate reader. […]

embryonic stem cell [7] = settings: embryotoxicity test previously reported; cited from earlier work
embryonic stem cell [8] = settings: embryotoxicity test previously reported; cited from earlier work; remark: listed apart in the source
ES-GFP cells [9] = assay: Acute cytotoxicity live-cell kinetic assay, 3-D ES-GFP; type: cell-based; settings: high density 3-D ES-GFP, 2000 RFU; different doses
Protocol: For the live-cell kinetic assays, acute cellular events can be easily characterized with online continuous fluorescence measurements without human intervention. The 3-D cell-based assay system was thus applied to test the response of ES-GFP cells to a surfactant, Triton X-100 (Sigma Chemical Company, St. Louis, Mo.). ES-GFP cells in the 3-D system were cultured to reach a high density with 2000 RFU fluorescence intensity. After applying different doses of Triton X-100, the culture plate was immediately put into the plate reader (Cytofluor Series 4000) at 37° C., with the cycle number set at 80 and cycle time at 3 min. The mixing time before each reading was 10 seconds. […] In general, increasing the surfactant concentration in the medium increased cell death, which followed a first order kinetics as indicated by the linear semilogarithmic plot (FIG. 10B). Triton X-100 is a non-ionic detergent commonly used to solubilize membrane proteins. The specific death rate kd at each Triton X-100 concentration can be estimated from the negative slope of the semi-log plots. […] The loss in the fluorescence signal for the control experiment without the surfactant was negligible and the slight decrease could be attributed to a slow increase in the medium pH outside the CO2 incubator. GFP fluorescence is marginally affected by the solution pH when it is in the neutral pH range.

ES-GFP cells [10] = assay: Effect of fibronectin coating of PET matrix on ES-GFP cell growth; type: cell-based
Protocol: Similarly, ES-GFP cells were used to study the effects of fibronectin coating of the PET matrix on cell growth. Fibronectin is involved in many cellular processes, one of which is to serve as a general cell adhesion molecule to help cells anchor onto proteoglycan or collagen substrates. Fibronectin is a commonly used extracellular matrix protein to enhance cell adhesion on the tissue scaffold. PET matrices were soaked in 10 μg/ml fibronectin (Sigma Chemical Company, St. Louis, Mo.) for 12 hours before use. The fibronectin-coated matrices were then placed in the growth medium and seeded with ES-GFP cells from the top of the scaffolds. […] Also, cells cultured in the fibronectin-coated matrix reached a maximum fluorescence intensity of 4000 RFU that was ˜2.5 times of that without fibronectin coating at 128 h. […] Cell spreading can also stimulate cell proliferation and contributes to uniform cell distribution in the 3-D matrix, which in turn allowed more light emission from the matrix. It is noted that cells developed different morphologies in these two matrices, with large aggregates formed in the matrix without fibronectin coating (FIG. 9D). The formation of large cell aggregates could add additional mass transfer limitation and further reduce cell growth. The adhesion of cells to PET fibers is important to determine the cell growth in the 3-D matrix.

[11] = concentration causing 50% reduction in exponential-phase specific growth rate, drug added one day after seeding

O=c1[nH]cc(F)c(=O)[nH]1 [5-FU, 5-fluorouracil]
IC50 (ES cells [1]; [11]): 0.035 µg/mL (≈ 0.269 µM) | IC50 (ES cells [2]): 0.045 µg/mL (≈ 0.346 µM) | effect on ES tissue constructs (ES cells [3]; 100 μg/ml, 3-D high density): no significant effect | Extent of cell kill (ES cells [3]): 20% | Rf (resistance factor) (ES cells [3]): >1000 | IC50 (HT-29-GFP [4]; HT-29-GFP 2-D): < 0.26 µg/mL | 2-D with fluorescence, cytotoxicity concentration (HT-29-GFP [5]; human): 0.052 to 0.26 µg/mL | 3-D with fluorescence, cytotoxicity concentration (HT-29-GFP [5]; human): 0.26 to 1.3 µg/mL | Tumor-like response assays, cytotoxicity concentration (HT-29-GFP [6]; human): 10 to 100 µg/mL | effect on HT-29 proliferation in perfusion culture (HT-29): significantly reduced cell proliferation; also recorded: significantly inhibited | ZEBET IC50 (embryonic stem cell [7]): 0.09 µg/mL | ECVAM IC50 (embryonic stem cell [8]): 0.065 µg/mL

C[C@@H]1C[C@H]2[C@@H]3CCC4=CC(=O)C=C[C@]4(C)[C@@]3(F)[C@@H](O)C[C@]2(C)[C@@]1(O)C(=O)CO [DM, dexamethasone]
IC50 (ES cells [1]; [11]): 11.5 µg/mL (≈ 29.3 µM) | Ig50 in 2-D as times of Ig50 in 3-D (ES cells [1]): 3 times | IC50 (ES cells [2]): 32 µg/mL (≈ 81.5 µM) | Extent of cell kill (ES cells [3]): 80.9% | EC50 (ES cells [3]; 144 h, read-out: EC50): 65 µg/mL (≈ 166 µM) | Rf (resistance factor) (ES cells [3]): 5.7

O=C1NC(=O)C(c2ccccc2)(c2ccccc2)N1 [DPH, diphenylhydantoin]
IC50 (ES cells [1]; [11]): 39 µg/mL (≈ 155 µM) | IC50 (ES cells [2]): 30 µg/mL (≈ 119 µM) | Extent of cell kill (ES cells [3]): 52.2% | EC50 (ES cells [3]; 144 h, read-out: EC50): 600 µg/mL (≈ 2380 µM) | Rf (resistance factor) (ES cells [3]): 15.4

Nc1ccn([C@@H]2O[C@H](CO)[C@@H](O)C2(F)F)c(=O)n1 [Gemcitabine, gemcitabine]
IC50 (HT-29-GFP [4]; HT-29-GFP 2-D): 5e-06 mM | 2-D with fluorescence, cytotoxicity concentration (HT-29-GFP [5]; human): 0.625 µM | 3-D with fluorescence, cytotoxicity concentration (HT-29-GFP [5]; human): 0.001 to 0.005 µM | times more resistance in tumor-like structure (HT-29-GFP [6]): (more than 1000 times | Tumor-like response assays, cytotoxicity concentration (HT-29-GFP [6]; human): >1000 µM | effectiveness on high density colon cancer cells (HT-29-GFP [6]): non-effective) | effectiveness on high density colon cancer cells (HT-29-GFP [6]; listed as gemcitabine): totally resistant

CC1(C)S[C@@H]2[C@H](NC(=O)Cc3ccccc3)C(=O)N2[C@H]1C(=O)O [Penicillin G, penicillin G]
3-D cultures Ig50 (ES cells [1]; [11]): 750 µg/mL | Ig50 in 2-D as times of Ig50 in 3-D (ES cells [1]): 6 times | 2-D cultures Ig50 (ES cells [2]): 4500 µg/mL | EC50 (ES cells [3]): 23000 µg/mL (≈ 68800 µM) | Extent of cell kill (ES cells [3]): 62.3% | Rf (resistance factor) (ES cells [3]): 30.7 | ZEBET IC50 (embryonic stem cell [7]): 2100 µg/mL | ECVAM IC50 (embryonic stem cell [8]): 2000 µg/mL

CCCC(=O)[O-].[Na+] [Sodium butyrate, sodium butyrate]
IC50 (HT-29-GFP [4]): 2 mM | 3-D with fluorescence, cytotoxicity concentration (HT-29-GFP [5]; 3-D low density, lowest concentration causing significant difference of fluorescent kinetics vs control): 2000 to 8000 µM | 2-D with fluorescence, cytotoxicity concentration (HT-29-GFP [5]; lowest concentration causing significant difference of fluorescent kinetics vs control): 8000 to 32000 µM | times more resistance in tumor-like structure (HT-29-GFP [6]): (about 10 times | times more resistance in tumor-like structure (HT-29-GFP [6]; listed as sodium butyrate): 10 times | Tumor-like response assays, cytotoxicity concentration (HT-29-GFP [6]; drug added at high density): 10000 to 100000 µM | time after drug adding at which fluorescence changed (HT-29-GFP [6]): changed one day | time after drug adding at which fluorescence changed (HT-29-GFP [6]; listed as sodium butyrate): one

Triton X-100
acute cellular response (loss in culture fluorescence) (ES-GFP cells [9]): caused an acute cell death

fibronectin
specific growth rate (ES-GFP cells [10]; PET matrices soaked in 10 μg/ml fibronectin, without coating 0.0335): 0.0458 h⁻¹ | maximum fluorescence intensity relative to that without fibronectin coating (ES-GFP cells [10]; at 128 h): ~2.5 times | maximum fluorescence intensity (ES-GFP cells [10]; fibronectin-coated matrix, 128 h): 4000 RFU | doubling time (ES-GFP cells [10]; with fibronectin coating, without coating 20.7): 15.1 h | enhancement of specific growth rate (ES-GFP cells [10]; with vs without fibronectin coating): 37%
